Columns and labels:
Assay type in all cases: biochemical
UCHL3 = target: T1, UCHL3 (Homo sapiens, UniProt P15374); assay: Isopeptidase cleavage of substrates (DUB-Glo luminescence / fluorescence), S/B; settings: for signal to background (S/B) ratio: 30 minutes
T1 sequence (P15374 1-230): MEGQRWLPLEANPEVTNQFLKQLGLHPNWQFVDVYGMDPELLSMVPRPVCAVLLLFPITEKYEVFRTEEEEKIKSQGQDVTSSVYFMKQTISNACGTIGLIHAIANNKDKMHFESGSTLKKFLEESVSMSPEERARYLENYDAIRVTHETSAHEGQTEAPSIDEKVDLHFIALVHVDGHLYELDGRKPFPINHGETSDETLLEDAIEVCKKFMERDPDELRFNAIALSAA
Experimental: The Ub-amino-luciferin substrate was compared to the Z-Arg-Leu-Arg-Gly-Gly (SEQ ID NO: 1)-amino-luciferin substrate (Promega DUB-Glo™ substrate) to determine the limit of detection of the activities of four different isopeptidases (UCHL3, USP2core, USP7, and USP8). For all enzymes, these two substrates were tested in parallel using the DUB-Glo™ assay system (Promega) according to the manufacturer's instructions. All enzymes were diluted into 50 mM HEPES, pH 7.5, 10 mM DTT, 0.1% Prionex (Sigma-Aldrich). For testing Z-Arg-Leu-Arg-Gly-Gly (SEQ ID NO: 1)-amino-luciferin, final isopeptidase concentrations were as follows: UCHL3 equal to approximately 0.35 to 50 nM; USP2core equal to approximately 10 to 500 nM, USP7 equal to approximately 0.1 to 50 nM, and USP8 equal to approximately 20 to 500 nM. For testing Ub-amino-luciferin, final isopeptidase concentrations were as follows: UCHL3 equal to approximately 0.05 to 50 pM; USP2core, USP7, and USP8 equal to approximately 0.5 to 500 pM. Reactions were assembled through addition of 50 μl of diluted enzyme and 50 μl of DUB-Glo™ reaction mixture supplemented with either Z-Arg-Leu-Arg-Gly-Gly (SEQ ID NO: 1)-amino-luciferin (final concentration of 20 μM) or Ub-amino-luciferin (final concentration of 100 nM). The signal in relative luminescence units (RLUs) was measured at 30 minutes from reaction assembly on an Envision multi-label plate reader (Perkin Elmer). The signal to background ratio (S/B) was calculated as (maximum signal−signal in absence of enzyme)/(signal in absence of enzyme).
The Ub-amino-luciferin (Ub-LUC) substrate was compared to the Ub-AMC substrate (FIG. 3) and the Ub-Rhodamine110 (Ub-Rho) substrate (FIG. 4), to determine the limit of detection for the activities of four different isopeptidases (UCHL3, USP2core, USP7, and USP8). All enzymes were diluted into 50 mM Tris, pH 8.0, 5 mM DTT, 0.05% (w/v) CHAPS. Final isopeptidase concentrations were as follows: UCHL3 equal to approximately 2 pM to 40 pM; USP2core, USP7, and USP8 were equal to approximately 10 to 1000 nM. Either Ub-AMC or Ub-Rhodamine110 (final concentration equal to 250 nM) were diluted into 50 mM Tris, pH 8.0, 5 mM DTT, 0.05% (w/v) CHAPS. Reactions were assembled through the addition of 50 μl diluted isopeptidase to 50 μl of either Ub-AMC or Ub-Rhodamine110, and the signal in relative fluorescence units (RFUs) was measured at 30 minutes on an Envision multi-label plate reader (Perkin Elmer). For Ub-AMC, fluorescence was monitored with filters corresponding to excitation at 340 nm and emission at 460 nm. For Ub-Rhodamine110, fluorescence was monitored with filters corresponding to excitation at 485 nm and emission at 531 nm. The signal to background (S/B) was calculated as (maximum signal−signal in absence of enzyme)/(signal in absence of enzyme).

Ataxin3-like = target: T2, Ataxin3-like (Homo sapiens, UniProt Q9H3M9); assay: Platform comparison of DUB substrates, signal to background; settings: DUB 10 nM; signal at 30 minutes; Ub-LUC 100 nM, DUB-Glo substrate 20 μM, Ub-AMC/Ub-rho 250 nM
T2 sequence (Q9H3M9 1-355): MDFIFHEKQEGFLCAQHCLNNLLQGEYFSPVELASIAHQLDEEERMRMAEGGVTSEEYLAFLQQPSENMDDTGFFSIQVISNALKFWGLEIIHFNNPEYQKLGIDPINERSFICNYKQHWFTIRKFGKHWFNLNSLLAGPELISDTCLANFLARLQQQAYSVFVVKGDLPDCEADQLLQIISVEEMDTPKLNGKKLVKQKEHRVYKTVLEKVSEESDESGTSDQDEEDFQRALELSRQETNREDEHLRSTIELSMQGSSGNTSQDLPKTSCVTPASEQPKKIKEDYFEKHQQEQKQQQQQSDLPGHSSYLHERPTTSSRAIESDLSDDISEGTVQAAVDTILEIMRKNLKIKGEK
Experimental: (§1) For Ub-AMC and Ub-Rhodamine110, all enzymes were diluted into 50 mM Tris, pH 8.0, 5 mM DTT, 0.05% CHAPS to a final concentration of 10 nM. […] Either Ub-AMC or Ub-Rhodamine110 (final reaction concentration equal to 250 nM) were diluted into 50 mM Tris, pH 8.0, 5 mM DTT, 0.05% (w/v) CHAPS. […] For Ub-Rhodamine110, fluorescence was monitored with filters corresponding to excitation at 485 nm and emission at 531 nm.

USP14 = USP14 (Homo sapiens, UniProt P54578); assay: as above; settings: DUB 10 nM; signal at 30 minutes; Ub-LUC 100 nM, DUB-Glo substrate 20 μM, Ub-AMC/Ub-rho 250 nM
Experimental: as §1

Ataxin3 = Ataxin3 (Homo sapiens, UniProt P54252); assay: as above; settings: DUB 10 nM; signal at 30 minutes; Ub-LUC 100 nM, DUB-Glo substrate 20 μM, Ub-AMC/Ub-rho 250 nM
Experimental: as §1

UCHL5 = target: T3, UCHL5 (Homo sapiens, UniProt Q9Y5K5); assay: as above; settings: DUB 10 nM; signal at 30 minutes; Ub-LUC 100 nM, DUB-Glo substrate 20 μM, Ub-AMC/Ub-rho 250 nM
T3 sequence (Q9Y5K5 1-329): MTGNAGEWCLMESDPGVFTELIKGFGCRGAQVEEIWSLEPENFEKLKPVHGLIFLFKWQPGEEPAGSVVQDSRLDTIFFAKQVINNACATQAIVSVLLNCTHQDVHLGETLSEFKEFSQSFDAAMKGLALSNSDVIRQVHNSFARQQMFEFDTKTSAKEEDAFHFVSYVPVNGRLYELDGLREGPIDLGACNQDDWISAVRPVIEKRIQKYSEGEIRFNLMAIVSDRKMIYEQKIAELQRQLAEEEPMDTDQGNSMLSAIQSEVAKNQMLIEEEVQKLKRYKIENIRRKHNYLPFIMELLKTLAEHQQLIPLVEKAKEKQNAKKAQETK
Experimental: as §1

USP14, sequence (P54578 whole entry, species assumed): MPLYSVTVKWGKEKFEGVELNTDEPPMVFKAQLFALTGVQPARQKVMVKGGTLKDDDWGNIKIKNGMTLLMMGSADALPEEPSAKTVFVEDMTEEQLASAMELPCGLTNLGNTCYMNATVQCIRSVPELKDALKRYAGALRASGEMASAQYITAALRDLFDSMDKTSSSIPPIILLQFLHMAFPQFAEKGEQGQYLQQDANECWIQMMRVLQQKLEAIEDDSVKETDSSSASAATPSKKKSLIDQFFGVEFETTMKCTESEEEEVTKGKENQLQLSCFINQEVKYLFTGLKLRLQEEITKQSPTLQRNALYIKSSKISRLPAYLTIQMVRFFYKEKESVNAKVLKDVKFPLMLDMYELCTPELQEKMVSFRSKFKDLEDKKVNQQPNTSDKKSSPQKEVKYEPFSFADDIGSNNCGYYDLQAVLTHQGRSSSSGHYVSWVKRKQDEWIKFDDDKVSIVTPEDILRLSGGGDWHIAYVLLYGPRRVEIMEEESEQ
Ataxin3, sequence (P54252 whole entry, species assumed): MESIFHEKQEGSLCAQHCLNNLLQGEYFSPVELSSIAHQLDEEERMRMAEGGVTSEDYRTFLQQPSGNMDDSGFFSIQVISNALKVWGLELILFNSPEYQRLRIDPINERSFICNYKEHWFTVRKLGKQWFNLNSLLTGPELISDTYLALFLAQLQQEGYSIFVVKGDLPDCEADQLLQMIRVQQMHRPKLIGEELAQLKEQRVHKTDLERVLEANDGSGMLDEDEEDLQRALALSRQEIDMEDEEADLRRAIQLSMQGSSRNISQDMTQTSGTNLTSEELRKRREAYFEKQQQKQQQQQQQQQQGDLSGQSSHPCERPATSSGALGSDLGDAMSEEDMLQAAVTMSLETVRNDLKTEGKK

Substance	signal to background (S/B) ratio (UCHL3; substrate 20 μM, UCHL3 40 nM)	Signal to Background value (Ataxin3-like)	Signal to Background value (USP14)	Signal to Background value (Ataxin3)	Signal to Background value (UCHL5)	fold greater S/B compared to Z-RLRGG-amino-luciferin (UCHL3; UCHL3 activity)	limits of detection, fold lower than with Z-RLRGG-amino-luciferin (UCHL3; linear range of UCHL3-dependent S/B)	signal to background (S/B) ratio (UCHL3; substrate 100 nM, UCHL3 32 pM)
Z-Arg-Leu-Arg-Gly-Gly (SEQ ID NO: 1)-amino-luciferin [DUB-glo ™]	approximately 1000	1.5	1.6	1.3	1.4	–	–	–
Ub(1-76)-aminoluciferin [Ub-LUC]	–	120	6.0	4.0	1700	about 1000 fold	approximately 1000 fold	1000

Source: patent US20120058499A1, “Bioluminescent Detection of Protease Activity” (priority 2010, published 2012)
